Converted amounts (≈) assume the structure as drawn. Like-named read-outs stand apart in the source and are kept apart here.
How the values were obtained:
[1] = tested on: EAEC 042 (AAF/II fimbriae); assay: Hemagglutination of sheep erythrocytes, EAEC 042; format: cell-based, Escherichia coli; conditions: EAEC 042 grown in MinA-G with 20 μg/ml NTZ; note: key: +++ = strong hemagglutination reaction; + weak; − no hemagglutination
Description: (§1) HA assays were performed in 96-well microplates as described in (1). Bacteria grown over night without shaking ([…]) were suspended in PBS and diluted to OD660 of […] was mixed with an equal volume of 3% (vol/vol) sheep erythrocyte suspension containing 1% mannose, except when type I fimbriae producing strains were assayed. In the latter, bacteria were grown statically in LB medium (with and without NTZ) for 48 h and HA was determined with guinea pig erythrocytes. HA reactions were incubated at 4° C. for […] HA was determined visually against controls receiving no NTZ. All assays were prepared in triplicate and repeated twice.

[2] = tested on: EAEC JM221 (Type 1 fimbriae); assay: Hemagglutination of guinea pig erythrocytes, EAEC JM221; format: cell-based, Escherichia coli; conditions: EAEC JM221 grown statically in LB 48 h with 20 μg/ml NTZ; note: key: +++ = strong hemagglutination reaction; + weak; − no hemagglutination
Description: HA assays were performed in 96-well microplates as described in (1). Bacteria grown over night without shaking (MinA-G medium with and without 25 μg/ml NTZ) were suspended in PBS and diluted to OD660 of […] was mixed with an equal volume of 3% (vol/vol) sheep erythrocyte suspension containing 1% mannose, except when type I fimbriae producing strains were assayed. In the latter, bacteria were grown statically in LB medium (with and without NTZ) for 48 h and HA was determined with guinea pig erythrocytes. HA reactions were incubated at 4° C. for […] HA was determined visually against controls receiving no NTZ. All assays were prepared in triplicate and repeated twice.

[3] = tested on: EAEC strains 042 and 17-2; assay: Growth and MIC of E. coli / EAEC strains in LB and MinA-G medium; format: cell-based; conditions: Escherichia coli; for MIC: static
Description: EAEC strains were grown overnight in MinA-G medium at 37° C. with shaking and used to inoculate fresh MinA-G medium containing a range of NTZ concentrations (0, 5, 10, 15, 20, and 25 μg/ml) to a starting OD600 of 0.1. Growth was recorded as the absorbance at 600 nm at 30-minute intervals over a period of eight hours. […] Motility was assessed in LB soft agar (0.3% agar) containing 0 to 25 μg/ml of NTZ. The diameter of outward spreading was measured daily and inhibition computed as percent of control.

[4] = reference (9); cited from earlier work
[5] = tested on: S. epidermidis; assay: MIC testing by broth dilution, S. epidermidis plank; format: cell-based, Staphylococcus epidermidis
Outline: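 Planktonic E. coli (LB) and S. epidermidis (Trypticase Soy), plus C. jejuni (Brain Heart Infusion), were exposed to a dilution series starting at 32 μg/ml. The C. difficile values are anaerobic zone ratios against NTZ.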

[6] = Solubility in water; format: physicochemical; conditions: water
[7] = tested on: S. epidermidis biofilm; assay: S. epidermidis biofilm assay (activity tables); format: cell-based, Staphylococcus epidermidis
Outline: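 Overnight TSB cultures diluted to OD600 0.01 and grown static with compound (triplicate) at 37° C for 16 h; turbidity recorded for growth. Biofilm: washed wells ethanol-fixed, stained with 0.5% crystal violet, A570 read before and after 95% ethanol extraction; mean ± SD.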

[8] = tested on: EAEC JM221 (AAF/I fimbriae); assay: Hemagglutination of sheep erythrocytes, EAEC JM221; format: cell-based, Escherichia coli; conditions: EAEC JM221 grown in MinA-G with 20 μg/ml NTZ; note: key: +++ = strong hemagglutination reaction; + weak; − no hemagglutination
Description: as §1

[9] = tested on: E. coli biofilm; assay: E. coli biofilm assay (activity tables); format: cell-based, Escherichia coli
Outline: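 E. coli strain 042 inoculated 1:100 with NTZ-containing medium and grown statically at 37 °C for 24 h. Growth measured by turbidity or plate counts (cfu/ml); biofilm stained with 0.5% crystal violet and read at 570 nm; triplicate, mean ± SD.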

With `CC(=O)Oc1ccccc1C(=O)Nc1ncc([N+](=O)[O-])s1` [Nitazoxanide, 2-(acetyloxy)-N-(5-nitro-2-thiazolyl)benzamide, reference compound] the “HA (sheep erythrocytes), bacterial OD660 0.5” value [1] was “−”, the “HA (sheep erythrocytes), bacterial OD660 1.0” value [1] was “−” and the “HA (sheep erythrocytes), bacterial OD660 1.5” value [1] was “+”. The “HA (guinea pig erythrocytes), bacterial OD660 0.5” value [2] was “−”, the “HA (guinea pig erythrocytes), bacterial OD660 1.0” value [2] was “−” and the “HA (guinea pig erythrocytes), bacterial OD660 1.5” value [2] was “+”. The IC50 ([3]; 042AND172, read-out: Concentration for 50% inhibition of aerobic growth, EAEC 17-2, MinA-G, estimated) was 20 to 25 µg/mL, the IC50 ([3]; 042AND172, read-out: Concentration for 50% inhibition of aerobic growth, EAEC 042, MinA-G, estimated) was 15 to 20 µg/mL and the MIC ([3]; 042AND172, E. coli strains, rich LB medium, read-out: MIC in LB medium) was greater than 64 µg/mL. For the same compound, the MIC50 ([3]; 042AND172, EAEC strains, static conditions) was roughly 20 µg/mL, the MIC ([3]; 042AND172, minimal medium with glucose, read-out: MIC in MinA-G medium) was roughly 32 µg/mL and the pKa [4] was 6.2. For the same compound, the MIC ([5]; Staphylococcus epidermidis, broth dilution, Trypticase Soy, 24 h, read-out: MIC (μM) S. epidermidis Plank) was 52.1 µM (≈ 16 µg/mL), the MIC ([5]; planktonic, 2-amino-3,5-dinitrothiophene analogues table, read-out: MIC S. epidermidis Plank) was 52.1 µM (≈ 16 µg/mL) and the MIC ([5]; planktonic, Thiophene analogues table, read-out: MIC S. epidermidis Plank) was 52.1 µM (≈ 16 µg/mL). The solubility [6] was less than 32 µg/mL, the “MIC (μM) S. epidermidis Biofilm” value [7] was 32.5 µM (≈ 9.99 µg/mL) and the “MIC S. epidermidis Biofilm” value ([7]; 2-amino-3,5-dinitrothiophene analogues table) was 32.5 µM (≈ 9.99 µg/mL). For the same compound, the “MIC S. epidermidis Biofilm” value ([7]; Furan analogues table) was 32.5 µM (≈ 9.99 µg/mL), the “MIC S. epidermidis Biofilm” value ([7]; Thiophene analogues table) was 32.5 µM (≈ 9.99 µg/mL) and the “HA (sheep erythrocytes), bacterial OD660 0.5” value [8] was “−”. For the same compound, the “HA (sheep erythrocytes), bacterial OD660 1.0” value [8] was “−”, the MIC ([9]; Escherichia coli, biofilm, Furan analogues table, read-out: MIC E. coli Biofilm) was 26 µM (≈ 7.99 µg/mL) and the MIC ([9]; Escherichia coli, read-out: MIC (μM) E. coli Biofilm) was 26 µM (≈ 7.99 µg/mL). For the same compound, the MIC ([9]; biofilm, 2-amino-3,5-dinitrothiophene analogues table, read-out: MIC E. coli Biofilm) was 26.0 µM (≈ 7.99 µg/mL) and the MIC ([9]; biofilm, Thiophene analogues table, read-out: MIC E. coli Biofilm) was 26.0 µM (≈ 7.99 µg/mL).

Source: patent US8835644B2, “Broad spectrum benzothiophene-nitrothiazolide and other antimicrobials” (University of Virginia Patent Foundation, priority 2009, dated 2014)
